Our source for the inhibition, solubility and residual activity values is ChEMBL document CHEMBL5150044, “Macrocyclization of Quinazoline-Based EGFR Inhibitors Leads to Exclusive Mutant Selectivity for EGFR L858R and Del19” (J Med Chem, 2022).

For data set [1], the system named is BaF3. Kind of data set: Inhibition of EGFR Del19 mutant in mouse BaF3 cells assessed as protein phosphorylation at 10 to 1000 nM incubated for 8 hrs by Western blot analysis. Type of data set: cell-based. Conditions: dose 10-1000 nM. (Immunoblotting shows a protein as a band on a membrane.)
The test system of data set [2] is BaF3. The format is cell-based. Conditions: Mus musculus, dose 10-1000 nM, time 8.0 hrs.
In data set [3] the test system is BaF3. Type of data set: cell-based. Conditions: Mus musculus, dose 10-1000 nM, time 8.0 hrs. This is another data set of the same source.
The nature of data set [4]: Solubility in neutral aqueous solutions after 24 hrs by HPLC analysis. The format is physicochemical.
A short description of data set [5]: Solubility in 10% DMSO after 24 hrs by HPLC analysis. Type of data set: physicochemical.
Data set [6] in a line: Solubility in 100% DMSO after 24 hrs by HPLC analysis. The format is physicochemical.
For data set [7], the system named is T1, Receptor-type tyrosine-protein kinase FLT3 (Homo sapiens), P36888 [D835V].
T1 sequence (whole entry): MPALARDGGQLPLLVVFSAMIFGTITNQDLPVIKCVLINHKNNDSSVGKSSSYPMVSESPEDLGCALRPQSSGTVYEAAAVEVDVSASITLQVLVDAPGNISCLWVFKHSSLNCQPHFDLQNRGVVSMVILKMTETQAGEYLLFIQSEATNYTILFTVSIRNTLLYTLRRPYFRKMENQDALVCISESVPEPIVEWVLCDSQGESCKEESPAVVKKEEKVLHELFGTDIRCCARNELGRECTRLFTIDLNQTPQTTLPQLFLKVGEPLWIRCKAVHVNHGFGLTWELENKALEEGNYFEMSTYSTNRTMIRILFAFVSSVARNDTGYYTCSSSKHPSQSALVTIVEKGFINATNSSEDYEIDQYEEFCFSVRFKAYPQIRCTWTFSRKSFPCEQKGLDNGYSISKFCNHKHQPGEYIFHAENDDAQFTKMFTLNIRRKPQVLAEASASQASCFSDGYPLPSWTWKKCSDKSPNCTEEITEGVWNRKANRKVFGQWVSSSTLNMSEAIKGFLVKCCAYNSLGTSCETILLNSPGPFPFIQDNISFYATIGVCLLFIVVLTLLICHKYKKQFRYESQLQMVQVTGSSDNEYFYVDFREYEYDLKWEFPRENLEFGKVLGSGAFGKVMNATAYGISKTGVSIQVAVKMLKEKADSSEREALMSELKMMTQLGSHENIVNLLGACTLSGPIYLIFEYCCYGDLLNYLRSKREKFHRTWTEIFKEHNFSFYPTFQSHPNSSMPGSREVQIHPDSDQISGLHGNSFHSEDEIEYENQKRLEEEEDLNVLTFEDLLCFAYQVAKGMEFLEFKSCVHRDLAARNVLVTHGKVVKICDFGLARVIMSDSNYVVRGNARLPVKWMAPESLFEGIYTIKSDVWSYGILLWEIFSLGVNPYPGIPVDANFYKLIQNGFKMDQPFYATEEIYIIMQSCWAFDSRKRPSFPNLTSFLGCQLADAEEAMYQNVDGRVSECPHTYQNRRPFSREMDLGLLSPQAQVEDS
Kind of data set: Inhibition of FLT3 D835V mutant (unknown origin) assessed as percent of control activity at 1 uM by radiometric protein kinase-reaction biology assay; values are per cent of control.

For data set [8], the system named is T2, Receptor-type tyrosine-protein kinase FLT3 (Homo sapiens), P36888 [D835Y].
T2 sequence (whole entry): T1 sequence (whole entry) with V835Y
Kind of data set: Inhibition of FLT3 D835Y mutant (unknown origin) assessed as percent of control activity at 1 uM by radiometric protein kinase-reaction biology assay; values are per cent of control.

The species named for a further data set is Homo sapiens. Kind of data set: Inhibition of EGFR […] mutant (unknown origin) assessed as percent of control activity at 1 uM by radiometric protein kinase-reaction biology assay; values are per cent of control.
Data set [9] has as its system Receptor-type tyrosine-protein kinase FLT3 (Homo sapiens), P36888 [UNDEFINED MUTATION]. Kind of data set: Inhibition of FLT3 ITD/D835V mutant (unknown origin) assessed as percent of control activity at 1 uM by radiometric protein kinase-reaction biology assay; values are per cent of control.

Residue numbers refer to the chain shown, from its start. Values after ≈ are worked out from the molar mass of the structure shown. Active and inactive are the calls of the source. The rule behind the calls is not given here.

In general, solubility refers to how much of the substance goes into solution per volume. High values mean much dissolved substance, low ones little dissolved substance. Broadly, the residual activity is the signal under treatment as a percentage of the control signal.

Consider `COc1cc2ncnc3c2cc1OCCOCCOc1cc(F)c(Cl)cc1N3`, for which the inhibition entry with BaF3 [1], in the data set with BaF3 [2] and with BaF3 [3] was “Active” throughout. Also, the solubility at 24 h in data set [4] amounted to 0.131 µg/mL (≈ 0.323 µM); in [5], 0.283 µg/mL (≈ 0.697 µM). Moreover, in data set [6], the solubility turned out to be 2592 µg/mL (≈ 6390 µM). Besides, the residual activity in data set [7] worked out at 5%; in data set [8], 25%; in the data set listed under Homo sapiens it was 26%; in data set [9], 33%.
